ChEMBL document CHEMBL5346982, “Disrupting Kaposi's Sarcoma-Associated Herpesvirus (KSHV) Latent Replication with a Small Molecule Inhibitor” (J Med Chem, 2023)

test system: Human gammaherpesvirus 8; assay: Inhibition of Kaposi's sarcoma-associated herpesvirus His-tagged oligomerization-deficient LANA DBD mutant (1008 to 1146 residues) assessed as disruption of LANA-DNA interaction at 250 uM preincubated with LBS1 representing 5'-Dy682-labeled double stranded DNA probe as substrate for 30 mins followed by compound addition and measured after 30 mins by Electrophoretic mobility shift assay; conditions: not given

SMILES | inhibition [%]
COc1ccc(-c2cc(C)c(-n3cc(-c4ccc(C(=O)O)cc4)nn3)cn2)cn1 | < 10
Cc1cc(-c2cccc(Cl)c2)ncc1-n1cc(-c2ccc(C(=O)O)cc2)nn1 | < 10
Cc1cc(-c2cccc(C(=O)O)c2)ncc1-n1cc(-c2ccc(C(=O)O)cc2)nn1 | < 10
COc1cccc(-c2cc(C)c(-n3cc(-c4ccc(C(=O)O)cc4)nn3)cn2)c1 | < 10
Cc1cc(-c2ccccc2)ncc1-n1cc(-c2ccc(C(=O)O)cc2)nn1 | < 10

test system: Human gammaherpesvirus 8; assay: Antiviral activity against Kaposi's sarcoma-associated herpesvirus infected in human HEK293 cells transfected with KSHV pGTR4:73 with four terminal repeats and LANA expression cassette containing plasmid assessed as inhibition of LANA-mediated replication of viral latent replication origin TR sequence at 15.625 to 62.5 uM incubated for 3 days by Southern blot analysis; type: functional, organism-based; conditions: dose 15.625-62.5 µM, time 3.0 day

SMILES | Activity
COc1ccc(-c2cc(C)c(-n3cc(-c4ccc(C(=O)O)cc4)nn3)cn2)c(Cl)c1 | Dose-Dependent Effect
